For 14 molecules, IC50 results are on record in patent US20260083751A1, “ALLOSTERIC MODULATORS OF ANDROGEN RECEPTOR COACTIVATOR RECRUITMENT FOR CRPC THERAPY” (University of Pittsburgh – Of the Commonwealth System of …, priority 2022, published 2026).

The target of one experiment is T1, AR-TIF2 PPI (Homo sapiens, UniProt P10275).
T1 construct: AR-LBD residues (662-919) were incorporated into one biosensor; expressed in transfected cells; host or cells: U-2 OS osteosarcoma cells, coinfected with recombinant adenoviruses
T1 sequence (P10275 662-919): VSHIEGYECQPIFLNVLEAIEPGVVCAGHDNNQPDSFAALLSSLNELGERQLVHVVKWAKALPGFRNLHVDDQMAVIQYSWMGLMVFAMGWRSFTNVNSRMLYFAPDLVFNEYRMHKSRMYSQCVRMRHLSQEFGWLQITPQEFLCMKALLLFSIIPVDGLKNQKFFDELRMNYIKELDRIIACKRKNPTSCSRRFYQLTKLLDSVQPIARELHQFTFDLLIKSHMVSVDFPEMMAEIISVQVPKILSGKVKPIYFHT
Kind of experiment: AR-TIF2 PPIB HCS assay: disruption of preformed DHT-induced AR-TIF2 PPI complexes (DHT then compound). Type of experiment: cell-based. To be noted: DHT then compound; U-2 OS cells; read-out: D then C IC50. How it is done: AR-TIF2 Protein-Protein Interaction Biosensor Assay: The AR-TIF2 PPIB HCS assay was performed in U-2 OS osteosarcoma cells as described previously (Fancher et al., Assay Drug Dev Technol. 2016, 14:453-477; Fancher et al., Assay Drug Dev Technol. 2018, 16:297-319; Hua et al., Assay Drug Dev Technol. 2014, 12:395-418; Hua et al., Methods Mol Biol. 2018, 1683:211-227). Briefly, U-2 OS cells were coinfected with recombinant adenovirus biosensor expression constructs and seeded at 2,500 cells per well in 384-well collagen-coated microplates (Greiner Bio-One #781956) and plates were incubated overnight at 37° C. in 5% CO2 and 95% humidity. […] After the appropriate time, assay plates were fixed by transfer of 50 μL of pre-warmed (37° C.) 7.4% formaldehyde and 2 μg/mL Hoechst 33342 in PBS and incubation at room temperature for 30 minutes. Liquid was aspirated, plates were washed twice with 85 μL PBS, leaving the final wash in the plate. Plates were sealed with adhesive aluminum plate seals, and fluorescent images of three fields of view were acquired in the DAPI (Hoechst stained nuclei), FITC (TIF2-GFP) and Texas Red (AR-RFP) channels on an ImageXpress® Micro (IXM) automated HCS platform (Molecular Devices LLC, Sunnyvale, CA) using a 10× Plan Fluor 0.3 NA objective. Images were analyzed using the Translocation Enhanced (TE) image analysis module of the MetaXpress® software (Molecular Devices, LLC, San Jose, CA) as described previously (Fancher et al., Assay Drug Dev Technol. 2016, 14:453-477; Fancher et al., Assay Drug Dev Technol. 2018, 16:297-319; Hua et al., Assay Drug Dev Technol. 2014, 12:395-418; Hua et al., Methods Mol Biol. 2018, 1683:211-227).
For the 96-well AR-LBD H^3-DHT radioligand binding assay, eight minimum and maximum plate control wells were utilized to normalize the data. For the PC cell line growth inhibition assays the DMSO control data from the TO and T72 assay plates was used to assess the dynamic range of the T0 to T72 cell growth, and to calculate S:B ratios and Z′-factor coefficient statistics for the assay signal window (T0 to T72). To normalize the 72 h compound exposure PC growth inhibition data, the signals from the compound treated wells were processed and expressed as % of the T72 DMSO plate controls. IC50 and GI50 values for each of the bioassays were calculated using GraphPad Prism 9 software to plot and fit data to curves using the Sigmoidal dose response variable slope equation Y=Bottom+[Top-Bottom]/[1+10^(Log EC50−X)*HillSlope].
A positional AR-TFI2 protein-protein interaction biosensor (PPIB) assay was used to identify small molecules that inhibited DHT-induced formation of AR-TIF2 PPIs and/or disrupted pre-existing AR-TIF2 PPIs (Fancher et al., Assay Drug Dev Technol 2016, 14(8):453-477; Fancher et al., Assay Drug Dev Technol 2018, 16(6):297-319; Hua et al., Assay Drug Dev Technol 2014, 12:395-418; Hua et al., Methods Mol biol 2018, 1683:211-227). AR-LBD residues (662-919) were incorporated into one biosensor and TIF2 residues (725-840) containing the 3rd NR box LXXLL motif into the second interacting biosensor partner (Id.) The AR-TIF2 PPIB recapitulates the orthosteric ligand (OSL)-induced translocation of AR from the cytoplasm into the nucleus where PPIs with TIF2 result in colocalization of both biosensors in the nucleolus. Using three libraries, a total of 143,535 compounds were screened—a 10,000-compound ChemDiv PPI focused diversity library, a 50,000-compound ChemBridge diversity library, and a 83,535-compound library provided by the NCI's Chemical Biology Consortium. The 10K and 50K diversity libraries were subsets of 142K and 810K parent libraries, enabling screening of a representative subset of >1×10^6 compounds. AR-TIF2 PPI inhibitor and disruptor actives were confirmed in the HCS assay and counter screens designed to identify and exclude nuisance/interference or non-selective compounds (Fancher et al., Assay Drug Dev Technol 2018, 16(6):297-319). […]
As a reminder, the IC50 is the point on the concentration scale where inhibition reaches its midpoint. Take `Cc1nsc(NC(=O)N2CCC(Sc3ccccc3C)CC2)n1` [Compound S2-6]: the IC50 was 5.8 µM.

Regarding `Cc1ccccc1-c1cc(O)c2c(c1)CN(c1cc(N)ncn1)CCO2` [Compound S1-4], the IC50 is > 100 µM.

Take `Cc1cccc2c(-c3ccc(O)c(F)c3)c[nH]c12` [Compound S3-17]: the half-inhibitory concentration (IC50) stood at 8.8 µM.

As to `Cc1ccccc1-c1cc(O)c2c(c1)CN(c1nccs1)CCO2` [Compound S1-3], the IC50 came out at 41.8 µM.

On to `CNC(=O)c1ccc(-c2c[nH]c3c(C)cccc23)cc1` [Compound S3-21], for which the IC50 was > 100 µM.

With `Cc1nc(N)cc(N2CCOc3c(O)cc(-c4ccccc4C)cc3C2)n1` [Compound S1-2], the IC50 was found to be 63 µM.

`Cc1c(-c2ccccc2F)[nH]c2ccc(CNC(=O)CCc3cnccn3)cc12` [Compound S3-12]: the IC50 was found to be 24.7 µM.

For `Cc1c(-c2ccccc2F)[nH]c2ccc(CNC(=O)c3ccc(CO)o3)cc12` [Compound S3-14], the concentration for half-maximal inhibition (IC50) was 16 µM.

On to `Cc1c(-c2ccc(F)cc2)[nH]c2ccc(CNC(=O)c3ccc(CO)o3)cc12` [Compound S3-15], for which the IC50 was 30.6 µM.

Consider `COc1cc(-c2ccc(C)s2)cc2c1OCCN(c1nc(C(N)=O)cs1)C2` [Compound S1-5], for which the 50% inhibitory concentration (IC50) is > 100 µM.

As to `CC(=O)NCCC(=O)NCc1ccc2[nH]c(-c3ccccc3F)c(C)c2c1` [Compound S3-13], the IC50 was determined as 37.6 µM.

In the case of `Cc1nsc(NC(=O)N2CCC(Cn3ccnc3)CC2)n1` [Compound S2-7], the concentration for half-maximal inhibition (IC50) is > 100 µM.

The same experiment, now with this note: U-2 OS cells, 25 nM DHT; read-out: Disruption of DHT-induced AR-TIF2 PPIs IC50.
Consider `Cc1nsc(NC(=O)N2CCC(Sc3ccccc3C)CC2)n1` [Compound S2-6], for which the IC50 stood at 5.64 µM.

Consider `Cc1ccccc1-c1cc(O)c2c(c1)CN(c1cc(N)ncn1)CCO2` [Compound S1-4], for which the concentration for half-maximal inhibition (IC50) was > 100 µM.

With `CNC(=O)c1ccc(-c2c[nH]c3c(C)cccc23)cc1` [Compound S3-21], the IC50 is > 100 µM.

As for `Cc1ccccc1-c1cc(O)c2c(c1)CN(c1nc(C(N)=O)cs1)CCO2` [Compound S1-1], the half-maximal inhibitory concentration (IC50) worked out at 24.8 µM.

Consider `COc1cc(-c2ccc(C)s2)cc2c1OCCN(c1nc(C(N)=O)cs1)C2` [Compound S1-5], for which the IC50 is > 100 µM.

In the case of `Cc1nsc(NC(=O)N2CCC(Cn3ccnc3)CC2)n1` [Compound S2-7], the half-inhibitory concentration (IC50) was > 100 µM.

With `Cc1c(-c2ccccc2F)[nH]c2ccc(CNC(=O)CCc3cn[nH]c3)cc12` [Compound S3-11], the IC50 worked out at 26.1 µM.
